Reference: ChEMBL document CHEMBL3885861, “Open TG-GATES”

Species on record: Rattus norvegicus
Test: Open TG-GATES - Regimen: Single
Type: toxicity, organism-based, Sprague-Dawley
Set-up: regimen Single, gender Male, age 6 weeks
Details: in vivo, iv, 20 mg/kg, route intravenous injection, dose level Middle; for APTT / Bas / Eos / Fbg / Hb / Ht / Lym / MCH / MCHC / MCV / Mono / Neu / PT / Plat / RBC / Ret / WBC: tissue Blood; for KIDNEY_L / KIDNEY_R / KIDNEY_TOTAL: tissue Kidney; for LIVER: tissue Liver; for A/G / ALP / ALT / AST / BUN / CRE / Ca / Cl / DBIL / GLC / IP / K / LDH / Na / PL / RALB / TBIL / TC / TG / TP / gamma-GTP: tissue Plasma

NCCBr [BROMOETHANAMINE] was tested, and the TERMINAL_BW (3 h) was 213.1 g, the APTT (3 h) was 23.3 s and the Bas (3 h) was 0%. It also gave an Eos (3 h) of 0.8%, a Fbg (3 h) of 304 mg/dL and a Hb (3 h) of 13.6 g/dL. For the same compound, the Ht (3 h) was 39.3%, the Lym (3 h) was 77.8% and the MCH (3 h) was 21.5 pg. For the same compound, the MCHC (3 h) was 34.7%, the MCV (3 h) was 61.9 fL and the Mono (3 h) was 2.2%. For the same compound, the Neu (3 h) was 18.8%, the PT (3 h) was 16.2 s and the Plat (3 h) was 141.3 x10_4/uL. The RBC (3 h) was 635 x10_4/ul, the Ret (3 h) was 5.8% and the WBC (3 h) was 60.9 x10_2/uL. The KIDNEY_L (3 h) was 0.9 g, the KIDNEY_R (3 h) was 0.9 g and the KIDNEY_TOTAL (3 h) was 1.9 g. The LIVER (3 h) was 9.4 g, the A/G (3 h) was 1.2 and the ALP (3 h) was 1554.2 IU/L. It also gave an ALT (3 h) of 41.2 IU/L, an AST (3 h) of 67.2 IU/L and a BUN (3 h) of 11.6 mg/dL. The CRE (3 h) was 0.1 mg/dL, the Ca (3 h) was 10.8 mg/dL and the Cl (3 h) was 105 meq/L. For the same compound, the DBIL (3 h) was 0 mg/dL, the GLC (3 h) was 189.8 mg/dL and the IP (3 h) was 9.8 mg/dL. For the same compound, the K (3 h) was 3.8 meq/L, the LDH (3 h) was 210 IU/L and the Na (3 h) was 143.2 meq/L. It also gave a PL (3 h) of 130.8 mg/dL, an RALB (3 h) of 3.1 g/dL and a TBIL (3 h) of 0.014 mg/dL. The TC (3 h) was 79.4 mg/dL, the TG (3 h) was 50.2 mg/dL and the TP (3 h) was 5.7 g/dL. It also gave a gamma-GTP (3 h) of 1.6 IU/L, a TERMINAL_BW (6 h) of 214.7 g and an APTT (6 h) of 23.7 s. It also gave a Bas (6 h) of 0%, an Eos (6 h) of 1% and a Fbg (6 h) of 308.8 mg/dL. For the same compound, the Hb (6 h) was 13.5 g/dL, the Ht (6 h) was 39.4% and the Lym (6 h) was 74.4%. For the same compound, the MCH (6 h) was 21.6 pg, the MCHC (6 h) was 34.3% and the MCV (6 h) was 63 fL. For the same compound, the Mono (6 h) was 2.2%, the Neu (6 h) was 21.4% and the PT (6 h) was 16.1 s. It also gave a Plat (6 h) of 126.9 x10_4/uL, an RBC (6 h) of 624.6 x10_4/ul and a Ret (6 h) of 6.1%. For the same compound, the WBC (6 h) was 83.3 x10_2/uL, the KIDNEY_L (6 h) was 1 g and the KIDNEY_R (6 h) was 1 g. The KIDNEY_TOTAL (6 h) was 2 g, the LIVER (6 h) was 8.8 g and the A/G (6 h) was 1.2. The ALP (6 h) was 1286 IU/L, the ALT (6 h) was 34.2 IU/L and the AST (6 h) was 68.6 IU/L. The BUN (6 h) was 9.8 mg/dL, the CRE (6 h) was 0.2 mg/dL and the Ca (6 h) was 10.5 mg/dL. It also gave a Cl (6 h) of 105.8 meq/L, a DBIL (6 h) of 0 mg/dL and a GLC (6 h) of 183.4 mg/dL. It also gave an IP (6 h) of 9.9 mg/dL, a K (6 h) of 4.2 meq/L and an LDH (6 h) of 183.2 IU/L. It also gave a Na (6 h) of 142 meq/L, a PL (6 h) of 117.2 mg/dL and an RALB (6 h) of 2.9 g/dL. The TBIL (6 h) was 0.026 mg/dL, the TC (6 h) was 74.4 mg/dL and the TG (6 h) was 28.8 mg/dL. It also gave a TP (6 h) of 5.5 g/dL, a gamma-GTP (6 h) of 1.6 IU/L and a TERMINAL_BW (9 h) of 205.7 g. For the same compound, the APTT (9 h) was 23.8 s, the Bas (9 h) was 0% and the Eos (9 h) was 0.6%. It also gave a Fbg (9 h) of 343 mg/dL, a Hb (9 h) of 13.9 g/dL and a Ht (9 h) of 40%. The Lym (9 h) was 74.4%, the MCH (9 h) was 21 pg and the MCHC (9 h) was 34.7%. For the same compound, the MCV (9 h) was 60.5 fL, the Mono (9 h) was 3% and the Neu (9 h) was 21.2%. The PT (9 h) was 15.9 s, the Plat (9 h) was 121.7 x10_4/uL and the RBC (9 h) was 662.2 x10_4/ul. For the same compound, the Ret (9 h) was 5.5%, the WBC (9 h) was 69.4 x10_2/uL and the KIDNEY_L (9 h) was 1 g. It also gave a KIDNEY_R (9 h) of 1 g, a KIDNEY_TOTAL (9 h) of 2 g and an LIVER (9 h) of 8.4 g. The A/G (9 h) was 1.1, the ALP (9 h) was 1380.4 IU/L and the ALT (9 h) was 32.6 IU/L. For the same compound, the AST (9 h) was 63 IU/L, the BUN (9 h) was 12.2 mg/dL and the CRE (9 h) was 0.2 mg/dL. It also gave a Ca (9 h) of 10.6 mg/dL, a Cl (9 h) of 105.4 meq/L and a DBIL (9 h) of 0 mg/dL. For the same compound, the GLC (9 h) was 187 mg/dL, the IP (9 h) was 9.4 mg/dL and the K (9 h) was 3.7 meq/L. For the same compound, the LDH (9 h) was 170.6 IU/L, the Na (9 h) was 142.8 meq/L and the PL (9 h) was 139 mg/dL. For the same compound, the RALB (9 h) was 3 g/dL, the TBIL (9 h) was 0.018 mg/dL and the TC (9 h) was 80.2 mg/dL. The TG (9 h) was 66.2 mg/dL, the TP (9 h) was 5.8 g/dL and the gamma-GTP (9 h) was 1.2 IU/L. The TERMINAL_BW (24 h) was 213.8 g, the APTT (24 h) was 22.4 s and the Bas (24 h) was 0%. The Eos (24 h) was 0.8%, the Fbg (24 h) was 384.6 mg/dL and the Hb (24 h) was 13.9 g/dL. The Ht (24 h) was 40.7%, the Lym (24 h) was 80.8% and the MCH (24 h) was 21.1 pg. For the same compound, the MCHC (24 h) was 34%, the MCV (24 h) was 61.9 fL and the Mono (24 h) was 2.6%. It also gave a Neu (24 h) of 15%, a PT (24 h) of 16.4 s and a Plat (24 h) of 123.2 x10_4/uL. It also gave an RBC (24 h) of 659.2 x10_4/ul, a Ret (24 h) of 4.9% and a WBC (24 h) of 85.8 x10_2/uL. For the same compound, the KIDNEY_L (24 h) was 1 g, the KIDNEY_R (24 h) was 1 g and the KIDNEY_TOTAL (24 h) was 2 g. The LIVER (24 h) was 9.5 g, the A/G (24 h) was 1.1 and the ALP (24 h) was 1544 IU/L. The ALT (24 h) was 41.8 IU/L, the AST (24 h) was 69.8 IU/L and the BUN (24 h) was 25.6 mg/dL. For the same compound, the CRE (24 h) was 0.2 mg/dL, the Ca (24 h) was 11 mg/dL and the Cl (24 h) was 105.6 meq/L. The DBIL (24 h) was 0.002 mg/dL, the GLC (24 h) was 190.4 mg/dL and the IP (24 h) was 6.7 mg/dL. It also gave a K (24 h) of 4.2 meq/L, an LDH (24 h) of 200.8 IU/L and a Na (24 h) of 142.8 meq/L. The PL (24 h) was 152.2 mg/dL, the RALB (24 h) was 3 g/dL and the TBIL (24 h) was 0.012 mg/dL. It also gave a TC (24 h) of 89.6 mg/dL, a TG (24 h) of 89 mg/dL and a TP (24 h) of 5.7 g/dL. The gamma-GTP (24 h) was 2.2 IU/L.
